# Measured values: patent publication US10086039B2, “Lamin A, an activator of longevity/anti-aging SIRT1 protein” (THE UNIVERSITY OF HONG KONG, priority 2012, dated 2018)
# Assays:
# [1] = system: Zmpste24−/− MEFs; assay: SA-β-galactosidase senescence assay in MEFs; format: cell-based, mouse; conditions: resveratrol-treated vs saline-treated
# Experimental: SA-β-galactosidase assay was performed using a Cellular Senescence Assay Kit (Chemicon International, CA, USA), following the manufacturer's instructions. For MEFs, resveratrol was supplemented in the complete medium at passage 4 and SA-β-galactosidase assay was performed at passage 6. To quantify SA-β-galactosidase staining, the blue-dyed precipitate was extracted with 100 μl DMSO and the absorbance at 415 nm was recorded.
# [2] = molecular target: T1, SIRT1 binding to prelamin A (Mus musculus, UniProt Q923E4); assay: Prelamin A pull-down by anti-SIRT1 immunoprecipitates in BMSCs; format: cell-based; conditions: resveratrol 2 μM
# T1 construct: endogenous in cells; host or cells: mouse bone marrow stromal cells (Zmpste24-/-)
# T1 sequence (Q923E4 2-737 limits assumed): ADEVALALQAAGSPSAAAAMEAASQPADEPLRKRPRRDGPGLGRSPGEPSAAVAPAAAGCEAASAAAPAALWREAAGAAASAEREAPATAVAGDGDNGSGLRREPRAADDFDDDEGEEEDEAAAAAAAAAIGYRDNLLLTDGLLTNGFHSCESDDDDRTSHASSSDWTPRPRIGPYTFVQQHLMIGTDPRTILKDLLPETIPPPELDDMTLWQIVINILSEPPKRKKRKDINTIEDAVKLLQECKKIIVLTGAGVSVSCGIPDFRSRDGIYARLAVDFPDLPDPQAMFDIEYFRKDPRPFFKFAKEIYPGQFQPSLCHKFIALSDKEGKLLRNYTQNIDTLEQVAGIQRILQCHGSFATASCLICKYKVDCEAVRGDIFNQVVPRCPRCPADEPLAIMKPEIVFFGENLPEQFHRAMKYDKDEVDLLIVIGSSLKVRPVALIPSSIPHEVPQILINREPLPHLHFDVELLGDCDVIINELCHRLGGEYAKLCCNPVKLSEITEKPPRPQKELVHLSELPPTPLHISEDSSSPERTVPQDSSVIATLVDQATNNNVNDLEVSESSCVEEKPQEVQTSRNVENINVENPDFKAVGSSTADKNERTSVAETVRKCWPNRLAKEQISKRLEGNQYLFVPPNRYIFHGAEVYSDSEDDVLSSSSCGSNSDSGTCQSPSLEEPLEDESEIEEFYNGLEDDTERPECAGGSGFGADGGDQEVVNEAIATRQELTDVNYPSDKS
# T1 sequence (P48678 1-662 partner limits assumed): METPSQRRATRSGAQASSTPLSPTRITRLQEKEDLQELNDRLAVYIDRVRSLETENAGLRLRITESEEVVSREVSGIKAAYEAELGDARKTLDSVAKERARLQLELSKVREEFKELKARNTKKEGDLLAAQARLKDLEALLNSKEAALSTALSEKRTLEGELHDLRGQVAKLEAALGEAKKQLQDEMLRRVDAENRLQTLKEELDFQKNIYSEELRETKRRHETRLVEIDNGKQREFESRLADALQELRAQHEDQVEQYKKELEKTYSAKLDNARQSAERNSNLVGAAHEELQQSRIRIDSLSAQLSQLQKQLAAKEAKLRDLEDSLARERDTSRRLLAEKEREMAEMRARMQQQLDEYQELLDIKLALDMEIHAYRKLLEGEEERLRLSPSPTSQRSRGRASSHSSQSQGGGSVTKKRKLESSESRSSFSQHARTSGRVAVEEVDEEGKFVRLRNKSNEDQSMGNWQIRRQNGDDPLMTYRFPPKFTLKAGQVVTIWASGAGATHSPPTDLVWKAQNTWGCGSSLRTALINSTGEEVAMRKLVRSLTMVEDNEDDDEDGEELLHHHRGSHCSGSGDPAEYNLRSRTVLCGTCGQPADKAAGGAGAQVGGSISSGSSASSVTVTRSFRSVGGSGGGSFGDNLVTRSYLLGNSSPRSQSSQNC
# Experimental: (FIG. 4A) Resveratrol (10 μM) increased colony-forming capacity of Zmpste24^−/− BMSCs. Colony-forming assay was performed on freshly isolated bone marrow cells in 10 cm dishes in the presence and absence of resveratrol. (FIG. 4B) Colony number counting. […] Data represent mean±SEM, n=4. *P<0.05, RSV Vs Vehicle. (FIG. 4C) Left, level of prelamin A pull down by anti SIRT1 immunoprecipitates in BMSCs treated or untreated with resveratrol (2 μM) was determined by Immunoblotting; right, level of acetylated Foxo3a in resveratrol was assessed by Immunoblotting. (FIG. 4D) Levels of catalase and Gadd45α in SIRT1 or scramble siRNA treated Zmpste24^−/− BMSCs in the presence or absence of resveratrol (10 μM) determined by Western blotting. (FIG. 4E) Colony-forming capacity of Zmpste24^−/− BMSCs by SIRT1 or scramble knocking down in the presence or absence of resveratrol. […] Colony forming assay was done on freshly isolated cells in 6-well plates. (FIG. 4F) Quantification of (FIG. 4E). […] (FIG. 4gG Levels of H3K9ac and IR-induced-H2AX with or without ectopic SIRT1 in wild-type and Zmpste24 null BMSCs were assessed by Western blotting. (FIG. 4H) Ectopic SIRT1 increased the colony-forming capacity of Zmpste24^−/− and wild-type BMSCs. Colony-forming assay was performed on freshly isolated cells in 6 cm dishes. (FIG. 4I) Quantification of (FIG. 4H). Data represent mean±SEM, n=5. *P<0.05, SIRT1 Vs Mock. […]
structure (smiles),measurement,setting,value
Oc1ccc(C=Cc2cc(O)cc(O)c2)cc1 [resveratrol],β-galactosidase activity (senescence),[1],no obvious difference
same,binding of SIRT1 to prelamin A,[2],increased the binding of SIRT1 to prelamin A
